According to paper PMC9958223, “Biochemical characterization of extremozyme L-asparaginase from Pseudomonas sp. PCH199 for therapeutics” (AMB Express, 2023):

Assays:
[1] = test system: T1, periplasmic L-ASNase (PCH199 L-ASNase, type II); assay: Nessler ammonia assay at […] nm, non-linear Michaelis-Menten fit; assay type: biochemical, Pseudomonas sp. PCH199; conditions: 0.1-3.0 mM substrate; standard assay 50 mM Tris-HCl pH 8.5, 37 ℃ (temperature of the kinetic run not restated)
T1 construct: gene ansB; native, purified from periplasm by osmotic shock (ammonium sulfate, Q-Sepharose, Superdex 200)

[2] = test system: T1, periplasmic L-ASNase (PCH199 L-ASNase, type II); assay: Michaelis-Menten non-linear regression (assay details not told); assay type: biochemical, Pseudomonas sp. PCH199; conditions: 0.02-0.5 mM substrate; assay pH and temperature not stated for L-glutamine

Km [1]	Km [2]	Compound
164 ± 9 µM	–	NC(=O)C[C@H](N)C(=O)O [L-asparagine]
–	34 µM	NC(=O)CC[C@H](N)C(=O)O [L-glutamine]
